2 compounds from patent US20160061843A1, “BIOMARKER ASSAY” (Respiratory Clinical Trials Ltd, priority 2014, published 2016) can be followed below.

Holding throughout (format): cell-based, human
Experiment [1] concerns intracellular pSTAT1 in macrophages. Kind of experiment: Flow cytometry of IFNγ-induced STAT1 phosphorylation in induced sputum macrophages from COPD subjects. Particulars: IFNγ 10 ng/ml. From the text: Sputum samples were collected from 15 COPD subjects on three or four repeat visits (i.e., three to four samples per subject). In each case, the subject inhaled 3% (w/v) saline solution mist through the mouthpiece of an ultrasonic nebulizer for five minutes. Sputum mobilization techniques were utilized to assist with the production of a sputum sample, such as diaphragmatic breathing, huffs, percussion, vibrations and positive expiratory pressure techniques. The subject was asked to attempt to cough sputum into a sputum collection pot. If the FEV1 fell by <10% after inhalation of 3% (w/v) saline, the participant was asked to inhale the next saline concentration (4% w/v) and repeat the procedure detailed above. Again if the FEV1 fell by <10% after inhalation of 4% (w/v) saline, the participant was asked to inhale the next saline concentration (5% w/v) and repeat the procedure detailed above. The sputum collected after 15 minutes of nebulization (i.e., 3×5 minutes) was processed in the laboratory for flow cytometric analysis. Induced sputum was kept on ice and processed as soon as possible but no more than two hours from collection. Sputum plugs were selected for processing and suitably transferred into a centrifuge tube. The volume of the selected sputum sample was noted and an equal volume of DPBS added. To liquefy the sample Sputolysin® was added to a final concentration of 0.05% (w/v). The tube was placed on a plate shaker (300 rpm) for 30 minutes at room temperature to disperse the cells. After 30 minutes the sample was mixed gently with a Pasteur pipette and left to shake for a further 15 minutes. The sample was centrifuged at 1200 rpm for 10 minutes at room temperature. Sputum supernatant was collected and used to measure cytokines/chemokines of interest. […] The supernatant was removed and the cell pellet resuspended in 500 μl staining buffer ready for flow cytometric analysis. […] Levels of STAT phosphorylation in the macrophage population were determined by taking the MFI of the stimulated sample and dividing by the MFI for the non-stimulated sample.

The test system of experiment [2] is intracellular pSTAT3 in sputum macrophages. The experiment in a line: Flow cytometry of IFNγ-induced STAT3 phosphorylation in induced sputum macrophages from COPD subjects. Particulars: % stimulation = stimulated MFI/non-stimulated MFI×100; IFNγ 10 ng/ml. On the procedure: FIG. 10 is a bar graph showing STAT3 phosphorylation in sputum macrophages following stimulation with IFNγ in the absence or presence of increasing concentrations of a MK2 inhibitor. % stimulation was calculated as stimulated MFI/non-stimulated MFI×100.
The methods of Example 1 were repeated exactly, but this time measuring intracellular STAT3 phosphorylation using an Alexa Fluor® 647 conjugated anti-pSTAT3 antibody. In addition, a MK2 inhibitor was tested instead of a JAK inhibitor compound. Increasing concentrations of inhibitor were tested (1 μM, 10 μM and 100 μM); the same conditions otherwise applied.

In experiment [3] the test system is intracellular pSTAT1(Y701) in macrophages. Kind of experiment: Flow cytometry of IFNγ-induced STAT1(Y701) phosphorylation in induced sputum macrophages from smokers. Particulars: unstimulated MFI 345.5; sputum from two smokers. Here is the method: FIG. 11A is a line graph showing the stimulation of STAT1(Y701) phosphorylation in macrophages and neutrophils from induced sputum by IFNγ, and inhibition of such phosphorylation after pre-incubation with increasing concentrations of a MK2 inhibitor followed by IFNγ stimulation. FIG. 11B is a bar graph showing phosphorylation of STAT1 (Y701) in macrophages in the presence and absence of the MK2 inhibitor expressed as % stimulation. % stimulation was calculated as stimulated MFI/non-stimulated MFI×100.
Induced sputum samples were obtained as described in Example 1. In this study, however, the subjects were smokers. Sputum was collected from two subjects.
Sputum samples were processed as described in Example 1.
Inducing STAT1(Y701) Phosphorylation STAT phosphorylation was induced as described in Example 1. In this study, however, the inhibitor compound was a MK2 inhibitor […].
Samples were stained as described in Example 1. However, in this study, and in order to specifically detect STAT1(Y701) phosphorylation, an Alexa Fluor® 647 conjugated anti-pSTAT1(Y701) antibody was used.
Levels of STAT1(Y701) phosphorylation in the macrophage population were determined by taking the MFI of the stimulated sample and dividing by the MFI for the non-stimulated sample. A value of greater than one (>1) indicated positive staining.

As to `C[C@@H]1CCN(C(=O)N2CCCC2)C[C@@H]1N(C)c1ncnc2[nH]ccc12` [JAK inhibitor, PF 956980], the “inhibition of STAT1 phosphorylation (in words)” value in experiment [1] (inhibitor final concentration 10^−5 M) was “complete inhibition”. Besides, the “MFI of intracellular pSTAT1 in macrophages after incubation with IFNγ+JAK inhibitor” value in experiment [1] (inhibitor final concentration 10^−5 M, unstimulated MFI 120.7±23.92, stimulated MFI 196.7±33.97) is given as 118.3±24.44.
Consider “IFNγ: cytokine used as stimulator of STAT phosphorylation”, for which the “MFI of intracellular pSTAT1 in macrophages after incubation with IFNγ” value in experiment [1] (20 min, 37° C., unstimulated MFI 120.7±23.92, 15 COPD subjects) is 196.7±33.97. Besides, the “increase of intracellular pSTAT3 in sputum macrophages following incubation with IFNγ” value in experiment [2] is 100%. The “MFI of intracellular pSTAT1(Y701) in macrophages stimulated with IFNγ” value in experiment [3] worked out at 511.
